Where a SMILES comes first, the peptide text is derived from it. [ ]: non-standard residue; d: D form. The star is where a group is joined. Sta = CC(C)C[C@H](N)[C@@H](O)CC(=O)O; Isovaleryl = CC(C)CC(=O)*
Tests used:
[1] = test system: protease activity of NEV fractions; experiment: In vitro protease cleavage activity of NEV viral protein fractions (fluorescence assay); format: biochemical; conditions: inhibitor 10 μM; Phe-Phe substrate pH 3 and 4, HIV substrate 1 pH 5; fractions 12, 15 and 16
Method: To assess for in vitro proteolytic cleavage activity, cell infections were performed in serum free media conditions. Day 5-7 p.i. viral particles were concentrated and extensively washed with HBSS in Vivaspin 100 kDa (Sartorius) columns. Concentrated viral particles were lysed in 0.1% SDS and submitted to analytical size-exclusion chromatography on a Superdex 200 5/150 GL (GE Healthcare Life Sciences) column connected to a Prominence HPLC system (Shimadzu Corporation, Tokyo, Japan). The column was equilibrated in 20 mM phosphate buffer pH 7.5 containing 150 mM NaCl.
The protease activity was determined by fluorescence assays in 96-well plates in a Gemini EM Fluorescence Microplate Reader, using the HIV Protease Substrate 1 Arg-Glu(EDANS)-Ser-Gln-Asn-Tyr-Pro-Ile-Val-Gln-Lys(DABCYL)-Arg (Sigma Aldrich) or the Phe-Phe substrate. For determination of the pH profile, viral particles were assayed for activity at 37° C. in buffers ranging between pH 3 and 6 (50 mM sodium acetate pH 3.0, 4.0, 5.0, and 6.0; 50 mM Tris-HCl […]) containing 100 mM NaCl. To test the specificity of enzymatic cleavage, Indinavir (Sigma Aldrich), a specific inhibitors of HIV protease, or pepstatin were used. The protease was pre-incubated in the presence of the inhibitor. […] The rate of substrate hydrolysis was monitored for 3 hours by the increase of intensity with excitation/emission wavelengths of 328/393 nm.

mab#4G6E4 = experiment: ELISA dose response of mab#4G6E4 on peptide-coated wells; format: binding, Mouse
Method: For that, serial dilutions of peptides in duplicates (1:1.3 or 1:1.4 in 0.05M carbonate buffer pH=9.3) ranging between 5 to 500 ng/mL were covalently linked to 96 microwell Poylsorp amino plates (Nunc, Thermofisher) for two hours at room temperature. To remove unbound peptide, plates were washed three times with PBS-Tween20 (0.005%) in an automated Wellwasher apparatus (Thermoscientific). After washing, plates were blocked by adding 300 microliters/well of Superblock T20 in PBS (Thermoscientific, Pierce). Superblock T20 was immediately removed and plates inverted till drying out. After blocked and dried plates were ready for c-ELISA or to be stored at 4-8° C. for further testing. […]
A rapid (2 hours) c-ELISA procedure was performed as follows: 70 ng/mL of mab#4G6E4 alone (50 microliters) diluted in dilution buffer was added to peptide-coated wells and incubated for 1 hour at 37° C. After 1 hour of incubation plates were extensively washed with 300 microliters of PBS-Tween20 (0.05%) for three times. The plate was after that incubated with a secondary goat anti-mouse IgG-HRP (Sigma Aldrich) at 1:2500 dilution and incubated for 30 minutes at 37° C. Plates were washed again four times with 300 microliters of PBS-Tween20 (0.05%) and signal developed by adding 50 microliters of fresh TMB reagent (Sigma Aldrich) for 15 minutes at room temperature. After colour development the reaction was stopped by adding 50 microliters of 1N H2SO4 (Sigma Aldrich). Determination of absorbance was obtained by reading plates at 450 nm in a Multiskan Go ELISA reader (Thermoscientific).
Dose responses curves were analysed by GraphPad Prism 6.0 software by using the four parameter function log(agonist) vs response with a variable slope. […] The Hill slope was very high for both peptides 7.2 for SEQ ID NO: 159 and 6.6 for SEQ ID NO: 20. The results are indicating high affinity between the mab and the peptide sequences (FIG. 6A1).
Furthermore dose response curves were optimized in order to decrease the Hill Slope and turn the assay more sensitive. […]

[2] = 70 ng/mL mab#4G6E4 diluted in 3% BSA, peptide 5 to 500 ng/mL, four parameter fit

Molecule	inhibition of the protease activity of NEV fractions [1]	EC50 (mab#4G6E4; [2]) [µg/mL]	EC50 (mab#4G6E4; mab#4G6E4 (70 ng/mL) in 0.025% casein blocking instead of 3% BSA) [µg/mL]
CC(C)(C)NC(=O)[C@@H]1CN(Cc2cccnc2)CCN1C[C@@H](O)C[C@@H](Cc1ccccc1)C(=O)N[C@H]1c2ccccc2C[C@H]1O [Indinavir]	able to inhibit		
CC(C)CC(=O)N[C@H](C(=O)N[C@H](C(=O)N[C@@H](CC(C)C)[C@@H](O)CC(=O)N[C@@H](C)C(=O)N[C@@H](CC(C)C)[C@@H](O)CC(=O)O)C(C)C)C(C)C [pepstatin] (Isovaleryl-VV[Sta]A[Sta]-OH)	able to inhibit		
EALDKIEEIQNKNKQKAAAQEQNPPPSVSLRSLFG [SEQ ID NO: 159]		0.1635	0.059
QEQNPPPSVSLRSLFGNDPL [SEQ ID NO: 20]		0.1937	
